Experimental data as given in article PMC12467740, “Synthesis, Characterization, and Screening Anticancer—Antibiofilm Activities of Theophylline Derivatives Containing CF3/OCF3 Moiety” (Biology, 2025).

Experiments:
[1] = system: A549 cells; assay: MTT cell viability assay, A549; assay type: cell-based, human; settings: for IC50: MTT, 48 h, mean ± SD (n = 3); for SI (A549): ratio of IC50 in BEAS-2B cells to IC50 in A549 cells
Experimental: (§1) The anticancer potential of substituted theophylline derivatives was investigated using human lung carcinoma (A549, CCL-185) and cervical cancer (HeLa, CCL-2) cell lines obtained from the American Type Culture Collection (ATCC). To evaluate the selectivity of the tested compounds, cytotoxicity was also assessed in a healthy human bronchial epithelial cell line (BEAS-2B, ATCC CRL-9609). Cells were maintained in DMEM (Euroclone S.p.A., Pero, Italy supplemented with 10% fetal bovine serum (Sigma-Aldrich, St. Louis, MO, USA) and 1% penicillin–streptomycin (1%, Capricorn Scientific GmbH, Ebsdorfergrund, Germany at 37 °C in a humidified atmosphere containing 5% CO2. The theophylline-derived compounds (1a–1e) were dissolved in DMSO to prepare 100 mM stock solutions, which were then diluted with DMEM to obtain final working concentrations ranging from 3.125 µM to 100 µM. To evaluate cell viability, the MTT colorimetric assay was employed. Upon reaching logarithmic growth, A549, HeLa and BEAS-2B cells were seeded at a density of 7000 cells per well in 96-well microplates and allowed to attach for 24 h. Following this, cells were treated with different concentrations of the compounds and incubated for 48 h. After treatment, 100 µL of fresh medium and 20 µL of MTT reagent (5 mg/mL, Bio Basic Inc., Markham, ON, Canada) were added to each well, and cells were incubated for an additional 3 h. The resulting formazan crystals were solubilized with DMSO. Cell viability was calculated as the percentage of absorbance relative to untreated controls, and IC50 values were determined by nonlinear regression analysis using GraphPad Prism software, version 8.0 (GraphPad Software, San Diego, CA, USA. All experiments were performed in at least three independent replicates, and results are reported as mean ± SD. The percentage of inhibition was calculated based on the reduction in metabolic activity of the cells following compound treatment, as assessed by the MTT assay. The absorbance was measured at 570 nm using a microplate reader. The inhibition (%) was calculated using the following formula:Inhibition %=[1 − (Asample − Ablank)/[…]] × 100 To assess the tumor selectivity of the tested theophylline derivatives, the selectivity index (SI) was calculated for each compound. SI is defined as the ratio of the IC50 value in healthy (non-tumorigenic) cells to the IC50 value in cancer cells. In this study, IC50 values were determined for BEAS-2B (non-tumorigenic human bronchial epithelial cells) as a healthy control and for A549 (lung adenocarcinoma) and HeLa (cervical carcinoma) as tumor models. The SI was calculated according to the following equation:SI = [IC50, healthy/IC50, cancer]

[2] = system: Candida albicans; assay: Well plate biofilm formation assay (crystal violet); assay type: cell-based; settings: over the concentration range given per compound (Table 4)
Experimental: (§2) The well plate assay was utilized to test the effectiveness of compounds in inhibiting biofilms made by microorganisms. An amount of 100 μL of Brucella broth (Remel, Lenexa, KS, USA) containing 1% and 20% glucose (Biolife, Milan, Italy), were dispensed into the test wells. In the next step, 100 μL of compounds ranging from 0.244 to 1000 μg/mL were poured into the wells. […] Then, 0.5 McFarland standard in physiological saline from each microorganism strain were prepared and 20 μL of the prepared suspension was added to the wells. A column of the microplate containing 100 μL Brucella broth served as a negative control and another column of the microplate containing 100 μL Brucella with 20 μL of each microorganism added served as a growth control. As positive controls, ciprofloxacin was applied against bacterial strains at a concentration range of 0.03125-64 μg/mL, and fluconazole was used against Candida albicans at a concentration range of 0.3125-640 μg/mL. Plates were left to incubate at 36.5 °C for a day. The plates were emptied and then washed three times with 300 μL of deionized water. The wells were left to dry for half an hour. The next step was staining with 0.1% (w/v) violet dye ([…]), cleaning three times with deionized water, and drying at room temperature. The crystal violet adhering to the wall of the wells was dissolved with 95% ethanol, and the optical density was measured at 570 nm. The test was run two times, and the mean value was calculated. Biofilm preventing (%) = {(ODb - ODc)/ODb} × 100.

[3] = system: Enterococcus faecalis; assay: as above; assay type: cell-based; settings: over the concentration range given per compound (Table 4)
Experimental: as §2

[4] = system: HeLa cells; assay: MTT cell viability assay, HeLa; assay type: cell-based, human; settings: for IC50: 48 h, MTT, mean ± SD (n = 3); for SI (HeLa): ratio of IC50 in BEAS-2B cells to IC50 in HeLa cells
Experimental: as §1

[5] = system: BEAS-2B cells; assay: MTT cell viability assay, BEAS-2B; assay type: cell-based; settings: Homo sapiens, 48 h, mean ± SD (n = 3)
Experimental: as §1

[6] = system: Escherichia coli; assay: Well plate biofilm formation assay (crystal violet); assay type: cell-based; settings: over the concentration range given per compound (Table 4)
Experimental: as §2

[7] = system: Pseudomonas aeruginosa; assay: as above; assay type: cell-based; settings: over the concentration range given per compound (Table 4)
Experimental: as §2

[8] = system: Staphylococcus aureus; assay: as above; assay type: cell-based; settings: over the concentration range given per compound (Table 4); 1c and 1e at 1000 µg/mL
Experimental: as §2

Structure (SMILES) | IC50 ([1]; Homo sapiens, A549, 48 h) [µM] | IC50 [1] [µM] | SI (A549) [1] | Antibiofilm activity Candida albicans [2] | Antibiofilm activity Enterococcus faecalis [3] | IC50 ([4]; Homo sapiens, HeLa) [µM] | IC50 [4] [µM] | SI (HeLa) [4] | IC50 [5] [µM] | Antibiofilm activity Escherichia coli [6] | Antibiofilm activity Pseudomonas aeruginosa [7] | Antibiofilm activity Staphylococcus aureus [8]
Cn1c(=O)c2c(ncn2Cc2cccc(C(F)(F)F)c2)n(C)c1=O [Compound 1b, 1,3-Dimethyl-7-(3-(trifluoromethyl)benzyl)-3,7-dihydro-1H-purine-2,6-dione] | 12.4 ± 0.7 | 13.6 ± 0.9 | 8.82 ± 0.20 | 0.8–23.9% | 5.7–23.1% | 10.8 ± 0.8 | 14.7 ± 0.7 | 8.16 ± 0.16 | 120 ± 3 | did not show antibiofilm activity and – | did not show antibiofilm activity and – | did not show antibiofilm activity and –
Cn1c(=O)c2c(ncn2Cc2ccc(C(F)(F)F)cc2)n(C)c1=O [Compound 1c, 1,3-Dimethyl-7-(4-(trifluoromethyl)benzyl)-3,7-dihydro-1H-purine-2,6-dione] | 13.6 ± 0.9 | 15.7 ± 0.6 | 5.73 ± 0.15 | 0.9–12.3% | 0.7–16.0% | 14.7 ± 0.7 | 11.5 ± 1.2 | 7.83 ± 0.22 | 90 ± 3 | did not show antibiofilm activity and – | did not show antibiofilm activity and – | 20.1%
Cn1c(=O)c2c(ncn2Cc2cc(C(F)(F)F)cc(C(F)(F)F)c2)n(C)c1=O [Compound 1d, 1,3-Dimethyl-7-(3,5-bis(trifluoromethyl)benzyl)-3,7-dihydro-1H-purine-2,6-dione] | 29.1 ± 0.5 | 31.4 ± 1 | 4.78 ± 0.14 | 1.8–11.8% | 0.7–23.9% | 32.4 ± 0.85 | 34.5 ± 1 | 4.35 ± 0.13 | 150 ± 4 | did not show antibiofilm activity and – | did not show antibiofilm activity and – | did not show antibiofilm activity and –
Cn1c(=O)c2c(ncn2Cc2ccc(OC(F)(F)F)cc2)n(C)c1=O [Compound 1e, 1,3-Dimethyl-7-(4-(trifluoromethoxy)benzyl)-3,7-dihydro-1H-purine-2,6-dione] | 31.4 ± 1 | 29.1 ± 0.5 | 4.81 ± 0.09 | 0.4–23.4% | 5.1–13.9% | 34.5 ± 1.25 | 32.4 ± 0.8 | 4.32 ± 0.11 | 140 ± 3 | did not show antibiofilm activity and – | did not show antibiofilm activity and – | 13.6%
